“And” between values parts separate entries of the source, which are not always exact repeats. Identical values can stand only once. Like-named read-outs stand apart in the source and are kept apart here.
Columns and labels:
[1] = system: B16 tumor; assay: Response of B16 tumors to suboptimal cisplatin chemotherapy in WT and PHD2+/− mice; type: in vivo, mouse; conditions: for anti-tumor effect in PHD2+/− mice / anti-tumor effect in WT mice: B16 tumor
Method: […] TUMOR MODELS: 5 105 B16F10.9 melanoma and 105 Lewis lung carcinoma (LLC) cells were injected subcutaneously into the right flank or foot pad, respectively. […] Circulating tumor cells were scored on 1 ml of peripheral blood upon red blood cell lysis.
[…] […] The mice were sacrificed at defined time intervals after cell inoculation or when tumors reached a maximum size of 2 cm3.

[2] = Cornea pocket assay with pellets containing VEGF or FGF-2; type: in vivo, mouse
Text: We also performed cornea pocket assays and implanted pellets, containing VEGF or FGF-2, in endothelial PHD2Cre/+ mice.

[3] = system: Lewis Lung Carcinoma (LLC); assay: Response of LLC tumors to suboptimal doxorubicin chemotherapy in WT and PHD2+/− mice; conditions: doxorubicin 2.5 mg/kg 3×/week
[4] = cisplatin 2.5 mg/kg 3×/week, listed as Cisplatin
[5] = PHD2+/− hearts upon doxorubicin treatment
[6] = PHD2+/− hearts upon doxorubicin treatment, versus WT

N.N.[Cl][Pt][Cl] [cisplatin]
anti-tumor effect in PHD2+/− mice ([1]; cisplatin 2.5 mg/kg 3×/week): effective | anti-tumor effect in PHD2+/− mice [1, 4]: reduced the volume (A) and weight (B) of B16 tumor | anti-tumor effect in WT mice ([1]; cisplatin 2.5 mg/kg 3×/week): does not kill B16 tumor cells | anti-tumor effect in WT mice [1, 4]: not effective | tumor size, smaller in PHD2+/− than WT mice ([1]; cisplatin 2.5 mg/kg 3×/week, B16 tumors, 11 days after initiation of chemotherapy): 60% | tumor apoptosis (active caspase 3) ([1]; tumors implanted in PHD2+/− mice upon cisplatin treatment): increased | tumor proliferation ([1]; tumors implanted in PHD2+/− mice upon cisplatin treatment, compared to WT): reduced

FGF-2: growth factor implanted as pellet in cornea pocket assay
branching points per mm2 ([2]; PHD2Cre/+ mice, N=4): 580±87 per mm2 | vessel area ([2]; PHD2Cre/+ mice, N=4): 33.4±4% | branching points per mm2 ([2]; PHD2lox/+ mice, N=4): 511±48 per mm2

VEGF
vessel area ([2]; PHD2Cre/+ mice, N=4): 23.2±1.6% | vessel area ([2]; PHD2lox/+ mice, N=4): 27.7±2.3% | branching points per mm2 ([2]; mouse, in vivo): 387±52 per mm2 and 345±60 per mm2

COc1cccc2c1C(=O)c1c(O)c3c(c(O)c1C2=O)C[C@@](O)(C(=O)CO)C[C@@H]3O[C@H]1C[C@H](N)[C@H](O)[C@H](C)O1 [doxorubicin]
cardiac hypertrophy (PHD1 and PHD3 deficient mice after 2 months of treatment): significant cardiac hypertrophy | capillary perfusion [5]: preserved | oxidative stress (cardiac ROS) [5]: reduced | Brain Natriuretic Peptide (BNP) expression [6]: lower levels | interstitial fibrosis [6]: reduced interstitial fibrosis | ejection fraction (EF) (PHD2+/− mice upon doxorubicin treatment): maintain or preserve the baseline EF levels | capillary perfusion (WT hearts upon doxorubicin treatment): not preserved | cardiac damage (doxorubicin 2.5 mg/kg 3×/week for four weeks, PHD2+/− mice): protected against cardiac damage | ejection fraction (EF) (wild-type mice upon doxorubicin treatment): decreases | anti-tumor effect in PHD2+/− mice [3]: responsive | anti-tumor effect in PHD2+/− mice ([3]; listed as Doxorubicin): reduced the volume of LLC (Lewis lung carcinoma) tumor | anti-tumor effect in WT mice ([3]; WT mice): not effective

Reference: patent US8741862B2, “PHD2 inhibition for blood vessel normalization, and uses thereof” (VIB VZW, priority 2009, dated 2014)
